Key:
custom array genes = experiment: Chlorogenic acid challenge, custom RT-PCR microarray, dermal fibroblasts ag07999; format: cell-based, human; conditions: 24 hours
Procedure: Human dermal fibroblasts (ag07999) were seeded at near confluency in 6-well dishes in 4 ml MEM, 10% FBS/well. 24 hours after seeding, wells were aspirated and 3 ml chlorogenic acid dilution in MEM, 1% FBS added, or MEM, 1% FBS only for control wells. Chlorogenic acid (Acros Organics, Geel, Belgium) dilutions used were: 0.005%, 0.0005%, 0.00005%, 0.000005% and 0.0000005%. 24 hours after chlorogenic acid challenge, wells were aspirated, 1 ml trypsin-EDTA added to each well, swirled and aspirated. Trypsin-EDTA was again added to each well and cells retrieved with MEM 10% FBS when released from the substratum and centrifuged to a pellet.
RNA was collected from the harvested cells according to protocol using RT2 qPCR-Grade RNA Isolation Kit from SABiosciences Co. The RNA was then used to create cDNA (using a First Strand Synthesis Kit, SABiosciences, and following the manufacturer's instructions) and run on the BioRad iCycler RT-PCR machine using Custom RT-PCR Microarray (CAPH09464A, SABiosciences) (Array 1) and SYBR Green Reaction Mix (SABiosciences). Data from Example 16 are shown in FIG. 19; additional results are described and analyzed below.

[1] = system: genes involved in longevity (Array 1); experiment: Custom RT-PCR microarray (Array 1) gene expression in skin fibroblasts, UVB/UVA1; format: cell-based, human; conditions: donor three IDE + UVB vs. Green tea + UVB Continuous Incubation; for PPC gene expression fold change / RTC gene expression fold change: control well
Procedure: Seeding of cells: On Day 1, each cell culture was seeded into 6 well cluster dishes at ˜1.5×10^5 cells in 4 mls medium per well. Three wells were seeded per test condition or control.
Experimental phase: On Day 3, wells were washed 1× with 2 mls medium, fed back 2 mls medium without fetal bovine serum and preincubated for 30-60 minutes before challenge with test or control conditions. After the preincubation, medium was aspirated from the wells and 2.5 mls of test or control condition in medium with 1% fetal bovine serum was pipetted into the appropriate wells.
(3) UVA1, UVB exposed and unexposed cells without test condition were used as controls. The experimental phase ended at 24 hours post UV exposure. Cells from each test and control parameter were then prepped for RNA isolation as described below.
UVB/UVA1 exposure: Cells exposed to UV received 200 mJ/cm^2 UVB/1 MED UVA1 using Thermo Oriel solar simulator model SP66923-3056. Cells were exposed from the bottom of the culture dish. The UV dose delivered to the cells was adjusted for interference from the plastic in the culture dish.
Preparation of RNA: The RNA was isolated using the Qiagen RNEasy Plus Mini Kit according to the manufacturer's protocol which can be found on the World Wilde Web at qiagen.com/literature/Defaultaspx?Term=&Language=EN&LiteratureType=4& ProductCategory=10162. The RNA was quantified and examined for purity using the 260/280 nm read method in a μ Quant spectrophotometer before use in the array.
Creation and Performance of a Custom Microarray (“Array 1”): Through the Custom Array design service of Superarray Bioscience Corporation, a 96 well RT-PCR microarray (“Array 1”) was developed to illustrate genetic responses in cells treated as above for specific genes involved in longevity as well as the relevant quality controls. The array was performed in compliance with manufacturer's guidelines and by recommended manufacturer's protocol as can be found on the World Wilde Web at superarray.com/Manual/perarrayplate.pdf
(§1) Custom Microarray Results: The results from the microarrays were determined using the delta CT method which uses comparisons of control genes and threshold cycles of genes of interest to generate relative expression values. The full set of experimental conditions was cross referenced and the data is provided herewith in DATA TABLE 3.
Preparation of RNA: The RNA was isolated using the Qiagen RNEasy Plus Mini Kit according to the manufacturer's protocol which can be found on the World Wide Web at qiagen.com/literature/Default. aspx?Term=&Language=EN&LiteratureType=4&ProductCategory=10162.
The RNA was quantified and examined for purity using the 260/280 nm read method in a μ Quant spectrophotometer before use in the array.
Creation and Performance of the Custom Microarray: Through the Custom Array design service of Superarray Bioscience Corporation, a 96 well RT-PCR Microarray was developed to illustrate genetic responses in cells treated as above for specific genes involved in longevity as well as the relevant quality controls. The array was performed in compliance with manufacturer's guidelines and by recommended manufacturer's protocol as can be found on the World Wide Web at superarray.com/Manual/perarrayplate.pdf.
as §1, with “4.” for “3.”
as §1, with “5. […]” for “3.”

O=C(/C=C/c1ccc(O)c(O)c1)O[C@@H]1C[C@](O)(C(=O)O)C[C@@H](O)[C@H]1O [chlorogenic acid, -[[3-(3,4-Dihydroxyphenyl)-1-oxo-2-propenyl]oxy]-1,4,5-trihydroxycyclohexanecarboxylic acid]
IFI44 relative expression (custom array genes; FIG. 17): may significantly decrease expression | expression of genes in the mitochondrial function/biogenesis pathway (custom array genes; FIG. 21a): primarily decreases gene expression | PTGS2 relative expression (custom array genes; at higher concentrations, FIG. 16): significant decrease in PTGS2 gene expression | NOS2A relative expression (custom array genes; increasing concentrations, FIG. 13): biphasic response | SIRT1 relative expression (custom array genes; increasing concentrations, FIG. 14): entirely decreasing expression | CCL4L1 relative expression (custom array genes; middle dosage (0.00005%), FIG. 11): marked repression

COC1=C(OC)C(=O)C(CCCCCCCCCCO)=C(C)C1=O [IDE]
ACE gene expression fold change [1]: −1.13 | ACTB gene expression fold change [1]: −2.17 | APOE gene expression fold change [1]: 2.43 | BAX gene expression fold change [1]: −1.01 | BCL2 gene expression fold change [1]: 2.04 | CASP2 gene expression fold change [1]: −1.96 | CASP9 gene expression fold change [1]: 2.11 | CCL4L1 gene expression fold change [1]: 16.91 | CLK1 gene expression fold change [1]: 1.02 | COX1 gene expression fold change [1]: 1.17 | CREBBP gene expression fold change [1]: 1.49 | CYP19A1 gene expression fold change [1]: 24.76 | DDC gene expression fold change [1]: 58.89 | GAPDH gene expression fold change [1]: −2.10 | GH1 gene expression fold change [1]: 17.51 | HIGX1A gene expression fold change [1]: 40.22 | HLA-DRA gene expression fold change [1]: 65.34 | HPRT1 gene expression fold change [1]: 1.30 | HSPA1A gene expression fold change [1]: −1.54 | HSPA1B gene expression fold change [1]: −2.03 | HSPA1L gene expression fold change [1]: −1.39 | IFI44 gene expression fold change [1]: 1.09 | IGF1 gene expression fold change [1]: 4.23 | IGF2 gene expression fold change [1]: −1.16 | IL1A gene expression fold change [1]: 10.41 | IL6 gene expression fold change [1]: −1.25 | IL10 gene expression fold change [1]: 3.20 | KRAS gene expression fold change [1]: 1.21 | MAPK14 gene expression fold change [1]: −1.39 | NADSYN1 gene expression fold change [1]: −2.33 | NFKB1 gene expression fold change [1]: −1.13 | NOS2A gene expression fold change [1]: 40.22 | PARP1 gene expression fold change [1]: −2.68 | PARP2 gene expression fold change [1]: 22.32 | PPARG gene expression fold change [1]: 5.39 | PTGS2 gene expression fold change [1]: 3.68 | SHC1 gene expression fold change [1]: −1.54 | SIRT1 gene expression fold change [1]: 1.39 | SOD1 gene expression fold change [1]: −2.03 | SOD2 gene expression fold change [1]: −1.13 | TEP1 gene expression fold change [1]: 1.06 | TERT gene expression fold change [1]: 3.56 | TNF gene expression fold change [1]: 16.91 | TP53 gene expression fold change [1]: 1.39 | PPC gene expression fold change ([1]; entry r305): −1.48 | RTC gene expression fold change ([1]; entry r306): 1.09 | PPC gene expression fold change ([1]; entry r311): −1.77 | RTC gene expression fold change ([1]; entry r312): −3.29

Reference: US20140079836A1, “METHODS AND COMPOSITIONS FOR ALTERING HEALTH, WELLBEING, AND LIFESPAN” (LifeSpan Extension, LLC, priority 2008, published 2014)
